US9987371B2 (priority 2013, dated 2018)
“Also recorded” adds a separate entry of the source. Like-named read-outs stand apart in the source and are kept apart here.

Tests used:
B16-F10 cells [1] = type: cell-based
GFP in B16 GFP cells [2] = type: cell-based; details: for Able to transfect?: GFP knockdown at 50 nM; for outcome of screening for GFP siRNA delivery: peptide:polynucleotide ratio between 50:1 and 200:1
GFP in B16 GFP cells [3] = type: cell-based
[4] = all tested doses, Hou et al., 2013; cited from earlier work
[5] = system: Rabbit red blood cells (RBC); assay: RBC hemolysis; type: cell-based
Description: The lytic capacity of liberated p5RHH can be quantified in vitro with red blood cell (RBC) hemolysis assays. When incubated at decreasing pH, the ability of p5RHH/siRNA nanoparticles to lyse RBC is enhanced, due to the release of free p5RHH at pH ≤5.5 (FIG. 210). These assays were performed at 4° C. to decrease the rate of auto-hemolysis observed at higher temperatures.
Rabbit red blood cells (RBC) were isolated from whole blood by centrifugation and washed in PBS 3× before storage at 4° C. Prior to hemolysis studies, RBC were washed 3× in pH appropriate HBSS and diluted 1 to 5000. RBCs in pH-specific buffer were then incubated with p5RHH/siRNA nanoparticles for 12 hours. The RBC remnants were pelleted by centrifugation and the hemoglobin content of the supernatant was measured by UV absorbance at 550 nm. Absorbance values were then normalized against maximum lysis by p5RHH only controls and presented as the average of 3 separate experiments.

B16-F10 cells [6] = system: B16-F10 cells
B16 GFP cells = assay: Alamar Blue cell viability of transfected B16 GFP cells; type: cell-based
Description: Cell viability was determined 72 hours post transfection using Alamar Blue (Life technologies). Briefly, Alamar Blue was diluted 1:10 into phenol red free medium and incubated with cells for 2-4 hours. Fluorescence was measured on a fluorescent plate reader with excitation at 570 nm and emission at 585 nm (Varian Cary Eclipse, Agilent Technologies, Santa Clara, Calif.).
B16 GFP cells were transfected with increasing concentrations of p5RHH/siRNA nanoparticles containing GFP-specific or scrambled siRNA. For comparison, B16 GFP cells were also transfected with increasing concentrations of GFP specific or scrambled siRNA using lipofectamine 2000. RNA extracted from transfected cells was analyzed using Northern blot analysis, and normalized viability of transfected B16 cells was determined (FIG. 28).

B16F10 cells [7] = assay: Acridine orange staining for endosomal/lysosomal disruption; type: cell-based; details: 100 nM siRNA, 12 hours
Description: Endosomal disruption in living cells was observed by acridine orange staining. Cells were first loaded with acridine orange (10 μM, 15 minutes), which fluoresces red at low pH in the endosome but green at cytoplasmic pH. Endosomal disruption can be visualized by an increase in cytoplasmic green fluorescence in the presence of 100 μM chloroquine (FIG. 21F).
B16F10 cells plated on coverslips are loaded with acridine orange at 10 μM for 15 minutes and washed for 3× in PBS before incubation in the presence of p5RHH/siRNA nanoparticles in 10% DMEM at a final siRNA concentration of 100 nM for 12 hours. Alternatively, cells were exposed to chloroquine (Sigma) at 100 μM for 15 minutes prior to imaging. Live cells were visualized by fluorescence microscopy on an Olympus BX610 (Tokyo, Japan).

B16F10 cells [8] = assay: Confocal microscopy of cytoplasmic oligonucleotide release in B16 cells; type: cell-based
[9] = charge ratio (+/−) 6:1 (peptide/siRNA 62:1, 28:1 or 50:1 by peptide)
[10] = charge ratio (+/−) 12:1 (peptide/siRNA 124:1, 56:1 or 100:1 by peptide)
[11] = charge ratio (+/−) 24:1 (peptide/siRNA 248:1, 112:1 or 200:1 by peptide)

CCN(c1nc(N)c(C(=O)NC(=N)N)nc1Cl)C(C)C [EIPA]
effect of endocytosis inhibitor on p5RHH/siRNA nanoparticle uptake (B16-F10 cells [1]): dramatically reduces p5RHH/siRNA uptake; also recorded: nearly abolishes nanoparticle uptake

CC[C@H](C)[C@H](NC(=O)CN)C(=O)NCC(=O)N[C@@H](C)C(=O)N[C@H](C(=O)N[C@@H](CC(C)C)C(=O)N[C@@H](CCCCN)C(=O)N[C@H](C(=O)N[C@@H](CC(C)C)C(=O)N[C@H](C(=O)N[C@H](C(=O)NCC(=O)N[C@@H](CC(C)C)C(=O)N1CCC[C@H]1C(=O)N[C@@H](C)C(=O)N[C@@H](CC(C)C)C(=O)N[C@H](C(=O)N[C@@H](CO)C(=O)N[C@@H](Cc1c[nH]c2ccccc12)C(=O)N[C@H](C(=O)N[C@@H](CCCCN)C(=O)N[C@@H](CCCNC(=N)N)C(=O)N[C@@H](CCCCN)C(=O)N[C@@H](CCCNC(=N)N)C(=O)N[C@@H](CCC(N)=O)C(=O)N[C@@H](CCC(N)=O)C(N)=O)[C@@H](C)CC)[C@@H](C)CC)[C@@H](C)O)[C@@H](C)O)C(C)C)C(C)C [Melittin, reference compound]
Able to transfect? (GFP in B16 GFP cells [2]; [9]): No
Able to transfect? (GFP in B16 GFP cells [2]; [10]): Toxic
Able to transfect? (GFP in B16 GFP cells [2]; [11]): Toxic
outcome of screening for GFP siRNA delivery (GFP in B16 GFP cells [2]): too toxic

CO/C1=C\C(C)=C\[C@@H](C)[C@@H](O)[C@@H](C)C/C(C)=C/C=C/[C@H](OC)[C@@H]([C@@H](C)[C@@H](O)[C@H](C)[C@@]2(O)C[C@@H](O)[C@H](C)[C@@H](C(C)C)O2)OC1=O [bafilomycin A1, reference compound]
effect of bafilomycin A1 on p5RHH/siRNA uptake (B16-F10 cells [1]): did not impair p5RHH/siRNA uptake; also recorded: does not inhibit uptake
effect of bafilomycin A1 on p5RHH mediated GFP knockdown (GFP in B16 GFP cells [2]): near complete loss of GFP knockdown; also recorded: blocks knockdown of GFP

CCN(CC)CCCC(C)Nc1ccnc2cc(Cl)ccc12 (centres unmarked) [chloroquine, reference compound]
effect of chloroquine on p5RHH mediated GFP knockdown (GFP in B16 GFP cells [3]): does not improve knockdown

CCCCC[C@@H](O)[C@H]1C(=O)O[C@H](C)[C@@H](O)/C=C/C=C/C=C/C=C/C=C(\C)[C@@H](O)C[C@H](O)C[C@H](O)C[C@H](O)C[C@H](O)C[C@H](O)C[C@@H]1O [filipin]
effect of endocytosis inhibitor on p5RHH/siRNA nanoparticle uptake (B16-F10 cells [1]): no effect; also recorded: do not inhibit

CC[C@H](C)[C@H](NC(=O)[C@H](CC(C)C)NC(=O)[C@H](C)NC(=O)[C@@H]1CCCN1C(=O)[C@H](CC(C)C)NC(=O)CNC(=O)[C@@H](NC(=O)[C@@H](NC(=O)[C@H](CC(C)C)NC(=O)[C@@H](N)C(C)C)[C@@H](C)O)[C@@H](C)O)C(=O)N[C@@H](CO)C(=O)N[C@@H](Cc1c[nH]c2ccccc12)C(=O)N[C@H](C(=O)N[C@@H](CCCNC(=N)N)C(=O)N[C@@H](CCCNC(=N)N)C(=O)N[C@@H](CCCNC(=N)N)C(=O)N[C@@H](Cc1c[nH]cn1)C(=O)N[C@@H](CCCNC(=N)N)C(=O)N[C@@H](CCCNC(=N)N)C(=O)N[C@@H](Cc1c[nH]cn1)C(=O)N[C@@H](CS)C(=O)O)[C@@H](C)CC [p5RHH]
cytotoxicity towards HUVEC cells (HUVEC cells): no cytotoxicity
cytotoxicity [4]: without significant cytotoxicity
IC50 ([5]; free peptide, normalized to 0.1% Triton-X, read-out: IC50 of RBC lysis): 200 to 400 µM
pH at which hemolysis / hemoglobin release is increased ([5]; p5RHH/siRNA nanoparticles, 4° C.): ≤ 5.5
nonspecific cytotoxicity (B16 viability) (B16-F10 cells [6]): no effect on B16 viability
decreased B16-F10 viability (B16-F10 cells [6]; mouse): 60%
cytotoxicity at p5RHH:siRNA ratios up to 200:1 (B16 GFP cells; Alamar blue, 50 nM siRNA): no sign of cytotoxicity
decrease in cell viability (B16 GFP cells; highest concentrations tested): ~3%
toxicity by Alamar blue (B16 GFP cells; siRNA concentrations up to 200 nM): minimal toxicity
cytotoxicity in RAW264.7 cells (RAW264.7 cells): without cytotoxicity
decrease in cell viability (RAW264.7 cells): ~5%

VLKVLTTLAPALISWIRRRHRRC [p5RH-LL]
Able to transfect? (GFP in B16 GFP cells [2]; [9]): No
Able to transfect? (GFP in B16 GFP cells [2]; [10]): Yes
Able to transfect? (GFP in B16 GFP cells [2]; [11]): No
outcome of screening for GFP siRNA delivery (GFP in B16 GFP cells [2]): able to transfect

VLTTGLPALISWIKRKRQQC [Peptide 5C]
Able to transfect? (GFP in B16 GFP cells [2]; [9]): No
Able to transfect? (GFP in B16 GFP cells [2]; [10]): No
Able to transfect? (GFP in B16 GFP cells [2]; [11]): No

VLTTGLPALISWIKRKRQQRWRRRR [p5RWR]
Able to transfect? (GFP in B16 GFP cells [2]; [9]): No
Able to transfect? (GFP in B16 GFP cells [2]; [10]): No
Able to transfect? (GFP in B16 GFP cells [2]; [11]): No
siRNA transfection ability (GFP knockdown) (GFP in B16 GFP cells [2]; flow cytometry, without / with 50 μM chloroquine): unable to initiate GFP knockdown without the aid of chloroquine; also recorded: no siRNA transfection ability
endosomal disruption (acridine orange release) (B16F10 cells [7]): cannot
oligonucleotide release into the cytoplasm (B16F10 cells [8]): do not reach the cytoplasm; also recorded: does not manifest appreciable oligonucleotide release into the cytoplasm
GFP knockdown by western blotting (GFP in B16 GFP cells [3]): unable to induce GFP knockdown even in the presence of chloroquine

VLTTGLPALISWIRRRHRRC [p5RH]
Able to transfect? (GFP in B16 GFP cells [2]; [9]): No
Able to transfect? (GFP in B16 GFP cells [2]; [10]): Yes
Able to transfect? (GFP in B16 GFP cells [2]; [11]): No
outcome of screening for GFP siRNA delivery (GFP in B16 GFP cells [2]): able to transfect
